Results: patent US9394261B2, “Aryl amine substituted pyrimidine and quinazoline and their use as anticancer drugs” (National Yang-Ming University, priority 2012, dated 2016)
“Also recorded” adds a separate entry of the source.

Assays:
EGFR = molecular target: T1, EGFR (Homo sapiens, UniProt P00533, DEL746-750); assay: western blot of EGFR phosphorylation in PC9 cells; assay type: cell-based; conditions: PC9 cells, 2 μM, 24 h (FIG. 3A)
T1 construct: endogenous in cells; host or cells: PC9 cells
Method: 40 μg/per lane of cell lysates were analyzed by western blot. The antibodies of actin, EGFR, and p-EGFR were from Cell Signaling (Danvers, Mass.). In FIGS. 1A-1B, actin lines are used to show an internal standard for the loading control in this western blot.

[1] = tested on: SK-Hep-1 cell lines (a hepatocellular carcinoma (HCC) cell); assay: MTT assay, growth inhibition of SK-Hep-1 cells; assay type: cell-based; conditions: SK-Hep-1 cells, 48 hours
Method: MTT assay was used to measure growth inhibition. […] MTT (3-(4,5-dimethylthiazol-2-yl)-2,5-diphenyl tetrazolium bromide) assay was performed as follow.
(§1) The effect of individual test compounds on cell viability was assessed by using the MTT in 6 replicates. Sk-Hep-1 cells were seeded and incubated in 96-well, flat-bottomed plates for 24 hours, and were exposed to various concentrations of test compounds dissolved in DMSO (final concentration, 0.1%) for 48 hours. Controls received DMSO vehicle at a concentration equal to that in drug-treated cells. The medium was removed, replaced by 200 μL of 0.5 mg/mL MTT in 10% fetal bovine serum containing DMEM (Dulbecco's Modified Eagle Medium), and cells were incubated in the carbon dioxide incubator at 37° C. for 2 hours. Supernatants were removed from the wells and the reduced MTT dye was solubilized in 100 μL/well DMSO. Absorbance at 570 nm was determined on a plate reader.
The SK-Hep1 cells were then analyzed with western blot assay and MTT assay.

Hep3B cell lines = assay: MTT assay, growth inhibition of Hep3B cells; assay type: cell-based; conditions: Homo sapiens
Method: as §1
Next, compounds 19, and 34-36 were screened against a panel of Hep3B cell lines for growth-inhibitory activities. […] Compounds 87-90, 95 and 96 were screened against a panel of PLC5 cell lines for growth-inhibitory activities.

CIP2A [2] = assay: western blot of CIP2A expression in SK-Hep1 cells; assay type: cell-based; conditions: SK-Hep-1 cells
Method: Accordingly, the pyrimidine and quinazoline derivatives above were screened by using western blot analysis for expression of CIP2A in SK-Hep1 cells. Before the western blot analysis, the SK-Hep-1 cells were maintained in DMEM supplemented with 10% FBS, 100 units/mL penicillin G, 100 μg/mL streptomycin sulfate and 25 μg/mL amphotericin B in a 37° C. humidified incubator in an atmosphere of 5% CO2 in air. In this western blot analysis, SK-Hep1 cells were respectively treated with compounds 1-24 at a concentration of 20 μM for 24 hours. In FIG. 2, the mono-substituted pyrimidine derivatives (compounds 1-5) have no appreciable change in CIP2A expression.
Cell viability, measured by MTT assay, and CIP2A expressions, analyzed by western blot, in response to compound 19 or erlotinib treatment in SK-Hep1 cell line were analyzed. SK-Hep-1 cells were treated with erlotinib and compound 19 at 2.5 and 5 μM for 24 h, respectively. The SK-Hep1 cells were then analyzed with western blot assay and MTT assay.
(§2) Next, compounds […], 19, and 22 were used to explore whether downregulation of CIP2A lead to suppression of p-Akt. FIG. 4A is the western blot analysis of the effect of the compounds 4, 19, and 22 on phosphorylation of Akt, PARP and Actin. In this western blot analysis, SK-Hep-1 cells were respectively treated with compounds 4, 19, and 22 at a concentration of 5 μM for 30 hours. […] That is, compound 19 and 22 can substantially increase apoptotic cell death to inhibit cancer growth.

CIP2A [3] = assay: western blot of CIP2A expression in H358, H460 and H322 lung cancer cells; assay type: cell-based; conditions: 5 μM (FIG. 3C)
Method: (§3) Similarly, CIP2A expressions analyzed by western blot were also performed for lung cancer cells, H358, H460, and H322 cell lines. Moreover, drug-induced apoptotic cell death was also assessed by western blot analysis of activated caspases cleaved poly(ADP-ribose)polymerase (PARP). The cleavage of PARP is explained as follow. The compound induces apoptotic signal which cleave the procaspase 3 to the active caspase 3. The activation of caspase 3 further cleaves PARP and inactivate PAPR function. The events are thought to be required in late apoptosis. Therefore, the PARP cleavage is an indicator of apoptosis.
(§4) In the PARP row of FIG. 3C, the upper bands represented the uncleavage PARP, and the middle band and lower band represented cleavage PARP.

PARP [4] = assay: western blot of PARP cleavage in H358, H460 and H322 lung cancer cells; assay type: cell-based; conditions: 5 μM (FIG. 3C)
Method: as §3, §4

p-Akt = assay: western blot of p-Akt in SK-Hep-1 cells; assay type: cell-based; conditions: SK-Hep-1 cells, 5 μM, 30 hours (FIG. 4A)
Method: as §2
In other words, in the present of okadaic acid, the activation of PP2A by compound 19-incuced CIP2A inactivation is blocked.

PARP [5] = assay: western blot of PARP cleavage in SK-Hep-1 cells; assay type: cell-based; conditions: 5 μM, 30 hours (FIG. 4A)
Method: as §2

SK-Hep-1 cells = assay: apoptotic cell death by flow cytometry (sub-G1) and cell death detection ELISA; assay type: cell-based; conditions: 2.5 and 5 μM, 24 h (FIG. 4B-4C)
Method: FIG. 4B is flow cytometry analysis of cell death induced by compounds 4, 19, and 22 at 5 μM, after 24 h of treatment in SK-Hep-1 cells. The apoptotic cells were assessed by flow cytometry (sub-G1). After Sk-Hep-1 cells were treated with compounds 4, 19, and 22, Sk-Hep-1 cells were trypsinized, collected by centrifugation and resuspended in PBS. After centrifugation, the cells were washed in PBS and resuspended in […] (PI) staining solution. Specimens were incubated in the dark for 30 min at 37° C. and then analyzed with an EPICS Profile II flow cytometer (Coulter Corp., Hialeah, Fla.). All experiments were performed in triplicate
FIG. 4C is ELISA analysis of cell death to analyze effects of compounds 4, 19, and 22 on DNA fragmentation in SK-Hep-1 cells. The effect of compounds 4, 19 and 22 on cell viability was assessed by a cell death detection ELISA kit (Roche Applied Science, Mannheim, Germany). SK-Hep-1 cells were treated with compounds 4 and 19 at 22 at 2.5 and 5 μM for 24 h. The cells were collected and assayed according to the standard protocol provided by the manufacturer.

[6] = tested on: SK-Hep-1 cell lines (a hepatocellular carcinoma (HCC) cell); assay: MTT assay, growth inhibition of SK-Hep-1 cells; assay type: cell-based; conditions: 2.5 and 5 μM, 24 h (FIG. 3B)
PLC5 xenograft tumor = PLC5 xenograft tumor growth in nude mice; conditions: erlotinib 50 mg/kg/day; for tumor inhibition, PLC5 cell: p.o. daily, after 21 days of treatment, compounds 8 and 19 20 mg/kg/day
Method: (§5) The mice were housed in groups and maintained under standard laboratory conditions on a 12-hour light-dark cycle. They were given access to sterilized food and water ad libitum. All experimental procedures using these mice were performed in accordance with protocols approved by the Institutional Laboratory Animal Care and Use Committee of National Taiwan University. Each mouse was inoculated s.c. in the dorsal flank with 1×10^6 HCC cells suspended in 0.1 ml of serum-free medium containing 50% Matrigel (BD Biosciences, Bedford, Mass.). […] Controls received vehicle.
(§6) Tumor growth data points are reported as mean tumor volume±SE.

Huh-7 xenograft tumor = Huh-7 xenograft tumor growth in nude mice; conditions: erlotinib 50 mg/kg/day; for effect on Huh-7 tumor growth, in words: p.o. daily for 3 weeks, compounds 20 mg/kg/day (FIG. 7A-7B); for tumor inhibition, Huh7 cell: p.o. daily, after 21 days of treatment, compounds 8 and 19 20 mg/kg/day
Method: as §5, §6

[7] = tumor-bearing mice, p.o. daily for 3 weeks; erlotinib 50 mg/kg/day, compounds 8 and 19 20 mg/kg/day

T1 sequence (P00533 with tags, fused parts or gaps DEL746-750): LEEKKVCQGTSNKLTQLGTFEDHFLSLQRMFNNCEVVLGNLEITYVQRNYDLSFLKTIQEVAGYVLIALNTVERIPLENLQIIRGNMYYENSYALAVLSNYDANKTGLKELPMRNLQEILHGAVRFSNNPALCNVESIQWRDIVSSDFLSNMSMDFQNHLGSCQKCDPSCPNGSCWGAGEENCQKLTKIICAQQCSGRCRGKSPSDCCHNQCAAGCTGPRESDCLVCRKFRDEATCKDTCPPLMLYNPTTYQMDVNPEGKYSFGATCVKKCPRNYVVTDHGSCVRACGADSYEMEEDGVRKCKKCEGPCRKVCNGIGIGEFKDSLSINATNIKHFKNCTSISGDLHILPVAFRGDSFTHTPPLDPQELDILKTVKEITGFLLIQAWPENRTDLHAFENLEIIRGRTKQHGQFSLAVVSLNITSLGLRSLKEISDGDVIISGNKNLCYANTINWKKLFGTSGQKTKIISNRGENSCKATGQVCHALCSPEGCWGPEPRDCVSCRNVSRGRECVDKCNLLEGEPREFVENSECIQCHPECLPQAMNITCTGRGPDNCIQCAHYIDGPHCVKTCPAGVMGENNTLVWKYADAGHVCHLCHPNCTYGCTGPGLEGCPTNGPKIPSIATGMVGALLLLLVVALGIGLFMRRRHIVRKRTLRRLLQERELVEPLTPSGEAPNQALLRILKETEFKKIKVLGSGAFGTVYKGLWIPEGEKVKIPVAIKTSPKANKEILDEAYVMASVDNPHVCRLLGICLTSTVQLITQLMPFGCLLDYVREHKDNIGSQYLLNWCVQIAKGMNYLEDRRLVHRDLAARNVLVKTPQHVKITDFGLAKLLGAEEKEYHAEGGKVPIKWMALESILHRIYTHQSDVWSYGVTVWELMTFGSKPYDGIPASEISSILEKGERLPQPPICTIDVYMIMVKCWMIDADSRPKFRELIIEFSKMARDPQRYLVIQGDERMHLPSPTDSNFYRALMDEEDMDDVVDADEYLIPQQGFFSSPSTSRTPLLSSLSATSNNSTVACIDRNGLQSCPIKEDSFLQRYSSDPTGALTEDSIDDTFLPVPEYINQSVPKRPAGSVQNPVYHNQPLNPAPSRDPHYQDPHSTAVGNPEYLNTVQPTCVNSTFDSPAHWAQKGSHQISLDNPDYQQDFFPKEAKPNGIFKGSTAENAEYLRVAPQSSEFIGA

Row | SMILES | EGFR phosphorylation inhibition (western blot) (EGFR) | IC50 [1] [µM] | IC50 (Hep3B cell lines) [µM] | inhibiting CIP2A expression (CIP2A [2]; 5 μM, 30 hours (FIG. 4A)) | CIP2A expression (CIP2A [2]; 2.5 and 5 μM, 24 h (FIG. 3B)) | CIP2A expression (CIP2A [3]) | PARP cleavage (PARP [4]) | p-Akt level (p-Akt) | PARP cleavage (PARP [5]) | cell apoptosis (sub-G1 flow cytometry, DNA fragmentation ELISA) (SK-Hep-1 cells) | cell viability (MTT) [6] | effect on PLC5 tumor growth, in words (PLC5 xenograft tumor; p.o. daily for 3 weeks, compounds 20 mg/kg/day (FIG. 6A-6B)) | tumor inhibition, PLC5 cell (PLC5 xenograft tumor) [%] | effect on Huh-7 tumor growth, in words (Huh-7 xenograft tumor) | tumor inhibition, Huh7 cell (Huh-7 xenograft tumor) [%] | tolerability (signs of toxicity, body weight, necropsy) [7]
1 | C#Cc1cccc(Nc2nc(Nc3ccc(Oc4ccccc4)cc3)nc3cc(OC)c(OC)cc23)c1 [Compound 19, N^4-(3-Ethynylphenyl)-6,7-dimethoxy-N^2-(4-phenoxyphenyl)quinazoline-2,4-diamine] | no inhibitory effect on EGFR kinase | 2.8 | 1.28 | inhibiting CIP2A expression; also recorded: most potent inhibition of CIP2A expression | reduce the CIP2A expression | down-regulate the expression of CIP2A | induce the cleavage of PARP | reducing p-Akt level; also recorded: reduced Akt phosphorylation | inducing PARP cleavage | induced cell apoptosis | reduce the CIP2A expression and the cell viability in a dosage dependent manner | significantly reduced the growth of tumor; also recorded: better inhibitory effect on PLC5 tumors than erlotinib; also recorded: significantly reducing the growth of tumor | 60.6 | better inhibitory effect on Huh-7 tumors than erlotinib | 34.8 | –
2 | C#Cc1cccc(Nc2ncnc3cc(OCCOC)c(OCCOC)cc23)c1 [erlotinib, reference compound] | – | – | – | – | – | – | – | – | – | – | – | – | 50.0 | no effect on tumor growth | 8.8 | tolerated the treatments well without observable signs of toxicity
